PMC3666986 (Clinical Medicine Insights. Pediatrics, 2010)
“Also recorded” adds a separate entry of the source. Read-outs that look alike come from different tables or passages of the source.

What was measured:
[1] = assay type: in vivo, human; details: for systemic accumulation: once daily administration of ciclesonide to children, with or without spacer; for time serum concentration detectable/observed after inhalation: present study, treatment not specified (discussion); for AUC: AUCτ, des-CIC in serum, Day 7, τ 24 h, mean ± SEM, N 29
[2] = Safety and tolerability monitoring; assay type: in vivo, human
Pulmonary function tests = assay type: in vivo, human
[3] = cited from earlier work
[4] = cited from earlier work; remark: listed apart in the source
[5] = healthy subjects and patients with asthma; cited from earlier work
glucocorticoid receptor = details: receptor affinity of dexamethasone = 100; cited from earlier work
[6] = adults, ciclesonide via HFA-MDI with AeroChamber Plus; cited from earlier work
[7] = Advair HFA; cited from earlier work
[8] = des-CIC, Treatment A 160 μg with spacer / Treatment C 160 μg no spacer, ANOVA
[9] = des-CIC, ciclesonide 80 μg with spacer vs 160 μg without spacer
[10] = des-CIC, ciclesonide 160 μg with spacer vs 160 μg without spacer

CC(C)C(=O)OCC(=O)[C@@]12O[C@H](C3CCCCC3)O[C@@H]1C[C@H]1[C@@H]3CCC4=CC(=O)C=C[C@]4(C)[C@H]3[C@@H](O)C[C@@]12C [ciclesonide]
systemic accumulation [1]: does not lead to systemic accumulation
time up to which serum concentrations were detectable ([1]; parent ciclesonide, Treatment A and C (160 μg), LLOQ 0.01 μg/L): up to 3 h
time up to which serum concentrations were measurable ([1]; parent ciclesonide, Treatment B (80 μg with spacer), LLOQ 0.01 μg/L): up to 1.5 h
time serum concentration detectable/observed after inhalation [1]: about 3 h
relation of AEs to study medication ([2]; assessed by investigator and sponsor): not related
tolerability ([2]; ciclesonide 80 or 160 μg once daily, 7-day periods, with or without spacer): well tolerated
number of patients reporting AEs ([2]; during the three treatment periods, 37 patients): 24
clinically relevant abnormalities (laboratory values) / adverse drug reactions ([2]; whole study): No clinically relevant abnormalities or adverse drug reactions; also recorded: No clinically relevant abnormalities
change in lung function (Pulmonary function tests; between screening, Day 7 of each treatment period, and study end): did not change to any relevant extent
FEV1 at study end (Pulmonary function tests; mean ± SD, screening value 1.81 ± 0.44): 1.76 ± 0.42 L
oral bioavailability [3]: < 1%
bound to plasma protein [4]: About 99%
lung deposition [5]: more than 50%

C[C@@H]1C[C@H]2[C@@H]3CCC4=CC(=O)C=C[C@]4(C)[C@@]3(F)[C@@H](O)C[C@]2(C)[C@@]1(O)C(=O)CO [dexamethasone]
relative glucocorticoid receptor affinity (glucocorticoid receptor): 100

C[C@]12C=CC(=O)C=C1CC[C@@H]1[C@@H]2[C@@H](O)C[C@@]2(C)[C@H]1C[C@H]1O[C@@H](C3CCCCC3)O[C@]12C(=O)CO [des-CIC, desisobutyryl-ciclesonide]
time up to which serum concentrations were detectable ([1]; des-CIC, 80 μg ciclesonide (Treatment B), LLOQ 0.01 μg/L): up to 6 h
time up to which serum concentration-time profile curves were obtained ([1]; des-CIC, 160 μg ciclesonide (Treatment A and Treatment C), LLOQ 0.01 μg/L): up to 12 h
AUCτ Ratio [% Ref] [1, 8]: 127 % Ref
Cmax Ratio [% Ref] [1, 8]: 155 % Ref
dose-normalized Cmax higher with spacer than without spacer [1, 9]: 63%
dose-normalized systemic exposure (AUCτ) higher with spacer than without spacer [1, 9]: 26%
dose-normalized Cmax higher with spacer than without spacer [1, 10]: 55%
dose-normalized systemic exposure (AUCτ) higher with spacer than without spacer [1, 10]: 27%
AUC ([1]; human, serum, inhaled, 80 ug, Treatment B 80 μg CIC with spacer): 0.316 ± 0.022 ng·h/mL
AUC ([1]; human, serum, inhaled, 160 ug, Treatment C 160 μg CIC no spacer): 0.542 ± 0.042 ng·h/mL
Tmax ([1]; human, serum, inhaled, tmax, des-CIC, similar for all treatments): 42 min
systemic accumulation [1]: does not lead to systemic accumulation
time serum concentration detectable/observed after inhalation [1]: up to 12 h
relative glucocorticoid receptor affinity (glucocorticoid receptor): 1200
oral bioavailability [3]: less than 1%
bound to plasma protein [4]: About 99%
effect of spacer on PK [6]: did not influence the PK

CCC(=O)O[C@]1(C(=O)SCF)[C@H](C)C[C@H]2[C@@H]3C[C@H](F)C4=CC(=O)C=C[C@]4(C)[C@@]3(F)[C@@H](O)C[C@@]21C [fluticasone propionate]
increase of AUC0–last with spacer [7]: 406%
increase of Cmax with spacer [7]: 210%
